Columns and labels:
[1] = molecular target: Histamine H3 receptor (Homo sapiens) (UniProt Q9Y5N1); assay: H3 (h) CEREP ligand profiling; settings: Compound concentration 10.0 uM
[2] = molecular target: Beta-2 adrenergic receptor (Homo sapiens) (UniProt P07550); assay: beta 2 (h) CEREP ligand profiling; settings: Compound concentration 10.0 uM
[3] = molecular target: Type-1 angiotensin II receptor (Homo sapiens) (UniProt P30556); assay: AT1 (h) CEREP ligand profiling; settings: Compound concentration 10.0 uM
[4] = molecular target: Mu-type opioid receptor (Homo sapiens) (UniProt P35372); assay: mu (h) (MOP) (agonist site) CEREP ligand profiling; settings: Compound concentration 10.0 uM
[5] = molecular target: Ephrin type-A receptor 3 (Homo sapiens) (UniProt P29320); settings: Compound concentration 1000.0 nM
[6] = molecular target: Serine/threonine-protein kinase ULK3 (Homo sapiens) (UniProt Q6PHR2); settings: Compound concentration 1000.0 nM
Chain of Serine/threonine-protein kinase ULK3 (Homo sapiens) (Q6PHR2 whole entry): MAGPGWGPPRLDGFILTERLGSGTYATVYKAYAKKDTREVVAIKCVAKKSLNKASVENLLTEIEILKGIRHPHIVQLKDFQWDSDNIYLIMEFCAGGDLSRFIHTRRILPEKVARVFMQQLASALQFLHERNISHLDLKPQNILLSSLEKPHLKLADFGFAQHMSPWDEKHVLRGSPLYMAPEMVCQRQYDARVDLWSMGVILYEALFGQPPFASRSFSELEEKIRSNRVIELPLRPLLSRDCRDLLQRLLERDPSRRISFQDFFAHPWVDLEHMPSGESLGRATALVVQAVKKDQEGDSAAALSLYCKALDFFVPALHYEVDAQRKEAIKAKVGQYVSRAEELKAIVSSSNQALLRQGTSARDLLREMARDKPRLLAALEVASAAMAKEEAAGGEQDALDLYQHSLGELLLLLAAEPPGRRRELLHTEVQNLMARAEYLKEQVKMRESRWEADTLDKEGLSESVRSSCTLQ

Chain of Type-1 angiotensin II receptor (Homo sapiens) (P30556 whole entry): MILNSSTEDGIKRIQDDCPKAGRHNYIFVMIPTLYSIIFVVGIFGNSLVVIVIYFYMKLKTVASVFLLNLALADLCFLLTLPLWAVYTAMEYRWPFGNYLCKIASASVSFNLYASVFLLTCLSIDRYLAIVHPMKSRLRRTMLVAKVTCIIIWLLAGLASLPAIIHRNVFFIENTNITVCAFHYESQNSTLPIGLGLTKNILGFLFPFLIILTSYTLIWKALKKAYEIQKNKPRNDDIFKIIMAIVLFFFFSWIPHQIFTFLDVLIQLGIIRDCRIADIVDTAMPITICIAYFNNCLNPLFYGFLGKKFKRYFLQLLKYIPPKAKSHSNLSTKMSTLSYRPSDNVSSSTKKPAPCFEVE
Chain of Mu-type opioid receptor (Homo sapiens) (P35372 whole entry): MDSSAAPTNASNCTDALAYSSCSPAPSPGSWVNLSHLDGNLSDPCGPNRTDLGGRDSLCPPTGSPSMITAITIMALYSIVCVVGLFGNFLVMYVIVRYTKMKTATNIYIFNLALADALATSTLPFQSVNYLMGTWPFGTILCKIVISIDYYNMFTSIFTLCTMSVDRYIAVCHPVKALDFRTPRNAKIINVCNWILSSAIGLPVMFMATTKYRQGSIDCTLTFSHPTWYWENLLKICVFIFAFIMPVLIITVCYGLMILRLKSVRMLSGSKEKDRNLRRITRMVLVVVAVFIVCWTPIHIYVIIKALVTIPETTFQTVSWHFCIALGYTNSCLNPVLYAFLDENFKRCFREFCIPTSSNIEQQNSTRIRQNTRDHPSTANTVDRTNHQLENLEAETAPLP
Chain of Histamine H3 receptor (Homo sapiens) (Q9Y5N1 whole entry): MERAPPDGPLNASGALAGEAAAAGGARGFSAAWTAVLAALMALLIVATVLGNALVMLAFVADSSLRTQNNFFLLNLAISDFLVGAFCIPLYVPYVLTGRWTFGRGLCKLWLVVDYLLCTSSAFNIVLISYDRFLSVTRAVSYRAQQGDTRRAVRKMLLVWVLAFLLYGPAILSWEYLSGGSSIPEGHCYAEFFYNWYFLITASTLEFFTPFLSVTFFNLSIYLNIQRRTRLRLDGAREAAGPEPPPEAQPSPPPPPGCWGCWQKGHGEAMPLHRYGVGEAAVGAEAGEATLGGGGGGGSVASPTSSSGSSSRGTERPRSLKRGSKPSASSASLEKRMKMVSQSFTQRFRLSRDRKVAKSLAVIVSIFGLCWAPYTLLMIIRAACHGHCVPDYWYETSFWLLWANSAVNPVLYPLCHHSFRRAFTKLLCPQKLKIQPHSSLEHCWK
Chain of Ephrin type-A receptor 3 (Homo sapiens) (P29320 whole entry): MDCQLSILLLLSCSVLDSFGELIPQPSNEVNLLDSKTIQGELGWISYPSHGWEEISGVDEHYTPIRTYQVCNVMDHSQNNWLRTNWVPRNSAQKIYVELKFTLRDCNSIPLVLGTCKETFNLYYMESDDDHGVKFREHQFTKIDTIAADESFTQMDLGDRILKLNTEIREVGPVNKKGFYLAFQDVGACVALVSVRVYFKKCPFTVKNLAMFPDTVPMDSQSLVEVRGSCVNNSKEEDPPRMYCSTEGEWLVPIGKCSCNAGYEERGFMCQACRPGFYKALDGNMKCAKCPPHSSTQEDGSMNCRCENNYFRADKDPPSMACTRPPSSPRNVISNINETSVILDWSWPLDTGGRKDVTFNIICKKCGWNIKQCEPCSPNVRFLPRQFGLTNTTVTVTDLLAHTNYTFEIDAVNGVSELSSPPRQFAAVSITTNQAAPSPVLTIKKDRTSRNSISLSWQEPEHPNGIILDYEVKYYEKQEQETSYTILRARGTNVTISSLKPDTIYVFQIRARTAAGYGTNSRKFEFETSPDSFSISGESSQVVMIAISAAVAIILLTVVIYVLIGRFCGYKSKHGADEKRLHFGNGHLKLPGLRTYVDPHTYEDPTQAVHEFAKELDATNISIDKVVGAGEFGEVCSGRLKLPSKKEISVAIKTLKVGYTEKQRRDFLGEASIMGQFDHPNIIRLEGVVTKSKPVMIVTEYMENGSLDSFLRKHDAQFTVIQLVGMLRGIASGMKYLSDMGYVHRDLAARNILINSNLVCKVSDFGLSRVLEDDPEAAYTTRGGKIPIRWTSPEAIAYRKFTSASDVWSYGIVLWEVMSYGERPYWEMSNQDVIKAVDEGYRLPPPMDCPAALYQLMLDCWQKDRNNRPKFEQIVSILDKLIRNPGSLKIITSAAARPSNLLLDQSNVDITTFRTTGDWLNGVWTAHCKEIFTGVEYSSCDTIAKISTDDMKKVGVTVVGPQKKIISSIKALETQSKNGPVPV
Chain of Beta-2 adrenergic receptor (Homo sapiens) (P07550 whole entry, looked up): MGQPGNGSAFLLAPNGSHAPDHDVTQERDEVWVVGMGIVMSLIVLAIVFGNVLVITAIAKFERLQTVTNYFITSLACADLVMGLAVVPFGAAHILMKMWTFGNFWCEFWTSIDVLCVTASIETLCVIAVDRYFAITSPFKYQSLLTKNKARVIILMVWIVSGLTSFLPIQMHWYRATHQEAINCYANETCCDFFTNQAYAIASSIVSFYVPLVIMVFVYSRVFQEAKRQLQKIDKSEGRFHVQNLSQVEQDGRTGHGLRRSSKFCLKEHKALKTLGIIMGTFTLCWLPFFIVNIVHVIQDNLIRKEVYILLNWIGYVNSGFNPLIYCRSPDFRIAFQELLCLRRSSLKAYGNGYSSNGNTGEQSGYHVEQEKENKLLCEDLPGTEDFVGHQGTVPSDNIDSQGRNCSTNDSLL

COc1ccc2cc(OCC3(C(=O)O)CN(C(=O)c4ccc(F)cc4)C3)ccc2c1 [PF-04418948]
inactive: inhibition [1] 10% | inhibition [2] -4% | inhibition [3] 1% | inhibition [4] -7% | residual activity [5] 92% | residual activity [6] 86%
